# Measurements: patent US4150029A, “3-Aryl 2-oxazolidinones, their process of preparation and their therapeutical application” (Delalande S.A., priority 1976, dated 1979)
# Where two headings read alike, the source gives them in different places.
# Experiments:
# [1] = system: generalised trembling caused by an intraperitoneal injection of dl-5-hydroxytryptophane; assay: Test A: potentiation of generalised trembling caused by dl-5-hydroxytryptophane in the mouse; assay type: in vivo; conditions: po, read-out: Test A 50 DE
# Protocol: Potentiation in a mouse of generalised trembling caused by an intraperitoneal injection (200 mg/kg) of dl-5-hydroxytryptophane, according to the mode of operation described by GOURET C. and RAYNAUD G. in the J. Pharmacol. (PARIS), (1974), 5, 231.
# [2] = system: ptosis observed one hour after an intravenous injection of reserpine; assay: Test B: antagonism of reserpine-induced ptosis in the mouse; assay type: in vivo; conditions: po, 1 h, p.o., reserpine 2 mg/kg i.v., read-out: Test B 50 DE
# Protocol: Antagonism in relation to ptosis observed one hour after an intravenous injection (2 mg/kg) of reserpine was given to a mouse, according to the mode of operation described by GOURET C. and THOMAS J. in J. Pharmacol. (PARIS), (1973), 4, 401.
# [3] = Acute toxicity in mice; conditions: mouse, in vivo, po; for LD50: acute toxicity, read-out: 50 DL
# [4] = system: pontogeniculo-occipital points (P.G.O.) caused by reserpine; assay: Test C: diminution in density of reserpine-induced pontogeniculo-occipital (P.G.O.) points in the cat; assay type: in vivo; conditions: Felis catus, po, reserpine 0.5 mg/kg, read-out: Test C 50 DE
# Protocol: Diminution in the density of pontogeniculo-occipital points (P.G.O.) caused by injecting a cat with 0.5 mg/kg of reserpine, according to the mode of operation described by COSTON A. and GOURET C. in J. Pharmacol. (PARIS), (1976), 7, 409.
# [5] = mouse, p.o., dl-5-hydroxytryptophane 200 mg/kg i.p.
Compound,"ED50 [1, 5]",ED50 [2],mortality ([3]; dose administered 1000 mg/kg/p.o.),ED50 [4],LD50 [3],ED50 ([1]; Mus musculus),mortality ([3]; dose administered 2000 mg/kg/p.o.)
CC(C)NC(=O)OCC1CN(c2cccc(C(F)(F)F)c2)C(=O)O1 (stereo not drawn) [compound 740711],19 mg/kg,26 mg/kg,0%,,,,
CC(C)Oc1ccc(N2CC(CO)OC2=O)cc1 (stereo not drawn) [compound 760116],60 mg/kg,50 mg/kg,,15 mg/kg,,,
CSc1ccc(N2CC(CO)OC2=O)cc1 (stereo not drawn) [compound 760082],22 mg/kg,18 mg/kg,,8.4 mg/kg,> 2000 mg/kg,,
CNC(=O)OCC1CN(c2ccc(OCc3ccc([N+](=O)[O-])cc3)cc2)C(=O)O1 (stereo not drawn) [compound 760676],,6.25 mg/kg,,22 mg/kg,,> 12.5 mg/kg,
CNC(=O)OCC1CN(c2ccc(OCc3cccc(Cl)c3)cc2)C(=O)O1 (stereo not drawn) [compound 760729],,23 mg/kg,,50 mg/kg,,> 12.5 mg/kg,
CNC(=O)OCC1CN(c2ccc(OCC(C)C)cc2)C(=O)O1 (stereo not drawn) [compound 760712],,25 mg/kg,,35 mg/kg,,48 mg/kg,
Cc1ccccc1COc1ccc(N2CC(CO)OC2=O)cc1 (stereo not drawn) [compound 760537],35 mg/kg,17 mg/kg,,37.5 mg/kg,,,
CCCCCCOc1ccc(N2CC(CO)OC2=O)cc1 (stereo not drawn) [compound 760549],26 mg/kg,11 mg/kg,,85 mg/kg,,,
CC(C)=CCOc1ccc(N2CC(CO)OC2=O)cc1 (stereo not drawn) [compound 760650],25.5 mg/kg,3.4 mg/kg,,7.03 mg/kg,,,
O=C1OC(CO)CN1c1ccc(OCc2cccc(F)c2)cc1 (stereo not drawn) [compound 760453],5.5 mg/kg,7 mg/kg,,11.6 mg/kg,,,
CCN(CC)c1ccc(N2CC(CO)OC2=O)cc1 (stereo not drawn) [compound 760311],27 mg/kg,32 mg/kg,,9 mg/kg,,,
O=C1OC(CO)CN1c1ccc(OCc2ccc(Cl)cc2)cc1 (stereo not drawn) [compound 760337],6 mg/kg,5 mg/kg,,120 mg/kg,,,
CNC(=O)OCC1CN(c2cccc(C(F)(F)F)c2)C(=O)O1 (stereo not drawn) [compound 740704],,12 mg/kg,,52 mg/kg,,42 mg/kg,0%
CNC(=O)OCC1CN(c2ccc(SC)cc2)C(=O)O1 (stereo not drawn) [compound 760786],,40 mg/kg,,25.5 mg/kg,,> 50 mg/kg,
Cc1cccc(COc2ccc(N3CC(CO)OC3=O)cc2)c1 (stereo not drawn) [compound 760533],41 mg/kg,54 mg/kg,,51 mg/kg,,,
"Cc1cccc(N2CC(CO)OC2=O)c1 (stereo not drawn) [TOLOXATONE, reference compound]",60 mg/kg,50 mg/kg,,28 mg/kg,1850 mg/kg,,
CNC(=O)OCC1CN(c2ccc(C(C)=O)cc2)C(=O)O1 (stereo not drawn) [compound 760731],,15 mg/kg,,17.5 mg/kg,,> 25 mg/kg,
O=C1OC(CO)CN1c1cccc(Br)c1 (stereo not drawn) [compound 750710],62 mg/kg,100 mg/kg,,14 mg/kg,,,
CC(C)COc1ccc(N2CC(CO)OC2=O)cc1 (stereo not drawn) [compound 760414],13 mg/kg,3 mg/kg,,5.5 mg/kg,,,

Compound,"ED50 [1, 5]",ED50 [2],mortality ([3]; dose administered 1000 mg/kg/p.o.),ED50 [4],LD50 [3],ED50 ([1]; Mus musculus),mortality ([3]; dose administered 2000 mg/kg/p.o.)
CCCCOc1ccc(N2CC(COC(=O)NC)OC2=O)cc1 (stereo not drawn) [compound 760662],,17.5 mg/kg,,23 mg/kg,,48 mg/kg,
CC(C)NC(=O)OCC1CN(c2ccc(OCc3ccccc3)cc2)C(=O)O1 (stereo not drawn) [compound 760723],> 50 mg/kg,17.5 mg/kg,,> 50 mg/kg,,,
C/C=C/COc1ccc(N2CC(CO)OC2=O)cc1 (stereo not drawn) [compound 760827],15 mg/kg,10 mg/kg,,5.2 mg/kg,,,
C=CCCOc1ccc(N2CC(CO)OC2=O)cc1 (stereo not drawn) [compound 760536],8.6 mg/kg,15 mg/kg,,6.3 mg/kg,,,
O=C1OC(CO)CN1c1ccc(SC2CCCCC2)cc1 (stereo not drawn) [compound 760621],100 mg/kg,42 mg/kg,,40 mg/kg,,,
"N#CCOc1ccc(N2CC(CO)OC2=O)cc1 (stereo not drawn) [compound 760651, 5-hydroxymethyl 3-p-cyanomethyloxyphenyl 2-oxazolidinone]",5.5 mg/kg,2.5 mg/kg,,1.5 mg/kg,,,
CCCSc1ccc(N2CC(CO)OC2=O)cc1 (stereo not drawn) [compound 760600],19 mg/kg,15.4 mg/kg,,6.26 mg/kg,,,
CC(=O)COc1ccc(N2CC(CO)OC2=O)cc1 (stereo not drawn) [compound 760652],7.1 mg/kg,2.8 mg/kg,,13 mg/kg,,,
N#Cc1ccc(COc2ccc(N3CC(CO)OC3=O)cc2)cc1 (stereo not drawn) [compound 760881],12.5 mg/kg,5 mg/kg,,29 mg/kg,,,
CCCOc1ccc(N2CC(CO)OC2=O)cc1 (stereo not drawn) [compound 760303],9 mg/kg,14 mg/kg,,6.9 mg/kg,,,
CNC(=O)OCC1CN(c2ccc(OCc3ccccc3)cc2)C(=O)O1 (stereo not drawn) [compound 760409],,7 mg/kg,,> 50 mg/kg,,100 mg/kg,
O=C1OC(CO)CN1c1ccc(OCc2ccc(F)cc2)cc1 (stereo not drawn) [compound 760432],3.8 mg/kg,2 mg/kg,,24 mg/kg,,,
C#CCOc1ccc(N2CC(COC(=O)NC)OC2=O)cc1 (stereo not drawn) [compound 760658],,27 mg/kg,,13.9 mg/kg,,> 12.5 mg/kg,
CCc1cccc(N2CC(CO)OC2=O)c1 (stereo not drawn) [compound 740512],68 mg/kg,32 mg/kg,,50 mg/kg,,,
CC#CCOc1ccc(N2CC(CO)OC2=O)cc1 (stereo not drawn) [compound 760877],25 mg/kg,25 mg/kg,,5.6 mg/kg,,,
O=C1OC(CO)CN1c1ccc(OC2CCCCC2)cc1 (stereo not drawn) [compound 760314],19 mg/kg,18 mg/kg,,12 mg/kg,,,
Cc1ccc(N2CC(CO)OC2=O)cc1C (stereo not drawn) [compound 750341],100 mg/kg,41 mg/kg,,22 mg/kg,,,
"CNC(=O)OCC1CN(c2ccc(OCC#N)cc2)C(=O)O1 (stereo not drawn) [compound 760660, 5-N-methylcarbamoyloxymethyl 3-p-cyanomethyloxyphenyl 2-oxazolidinone]",,31 mg/kg,,12.3 mg/kg,,> 12.5 mg/kg,
O=C1OC(CO)CN1c1ccc(OCCc2ccccc2)cc1 (stereo not drawn) [compound 760317],25 mg/kg,17 mg/kg,,45 mg/kg,,,

Compound,"ED50 [1, 5]",ED50 [2],mortality ([3]; dose administered 1000 mg/kg/p.o.),ED50 [4],LD50 [3],ED50 ([1]; Mus musculus),mortality ([3]; dose administered 2000 mg/kg/p.o.)
CCCCSc1ccc(N2CC(CO)OC2=O)cc1 (stereo not drawn) [compound 760473],41 mg/kg,22 mg/kg,,11.5 mg/kg,,,
"O=C1OC(CO)CN1c1cccc([N+](=O)[O-])c1 (stereo not drawn) [compound 740511, 5-hydroxymethyl-3-metanitrophenyl-2 oxazolidinone]",55 mg/kg,17 mg/kg,,40 mg/kg,,,
O=C1OC(CO)CN1c1ccc(OCc2ccc(Br)cc2)cc1 (stereo not drawn) [compound 760574],21 mg/kg,22 mg/kg,,> 50 mg/kg,,,
CNC(=O)OCC1CN(c2ccc(OCc3ccc(F)cc3)cc2)C(=O)O1 (stereo not drawn) [compound 760717],,12.5 mg/kg,,> 50 mg/kg,,> 12.5 mg/kg,
C=C(C)COc1ccc(N2CC(CO)OC2=O)cc1 (stereo not drawn) [compound 760535],28 mg/kg,50 mg/kg,,5.1 mg/kg,,,
O=C1OC(CO)CN1c1ccc(N2CCCC2)cc1 (stereo not drawn) [compound 760474],42 mg/kg,68 mg/kg,,14 mg/kg,,,
O=C1OC(CO)CN1c1ccc(OCc2ccc([N+](=O)[O-])cc2)cc1 (stereo not drawn) [compound 760622],5.5 mg/kg,2.1 mg/kg,,40 mg/kg,,,
CCOc1ccc(N2CC(COC(=O)NC)OC2=O)cc1 (stereo not drawn) [compound 760104],,44 mg/kg,,> 50 mg/kg,,48 mg/kg,
"CNc1ccc(N2CC(CO)OC2=O)cc1 (stereo not drawn) [compound 760395, 5-hydroxymethyl 3-p-N-methylaminophenyl 2-oxazolidinone]",39 mg/kg,28 mg/kg,,160 mg/kg,,,
O=C1OC(CO)CN1c1ccc(OCc2cccc(Cl)c2)cc1 (stereo not drawn) [compound 760548],4.4 mg/kg,3.4 mg/kg,,33.5 mg/kg,,,
C#CCOc1ccc(N2CC(CO)OC2=O)cc1 (stereo not drawn) [compound 760307],8 mg/kg,14 mg/kg,,5 mg/kg,,,
CCSc1ccc(N2CC(CO)OC2=O)cc1 (stereo not drawn) [compound 760466],40 mg/kg,32 mg/kg,,8.25 mg/kg,,,
C=CCOc1ccc(N2CC(CO)OC2=O)cc1 (stereo not drawn) [compound 760306],14 mg/kg,29 mg/kg,,2.5 mg/kg,,,
CN(C)c1ccc(N2CC(CO)OC2=O)cc1 (stereo not drawn) [compound 760133],11 mg/kg,7.2 mg/kg,,4.5 mg/kg,,,
CCCCCOc1ccc(N2CC(CO)OC2=O)cc1 (stereo not drawn) [compound 760396],12 mg/kg,1.4 mg/kg,,20 mg/kg,,,
O=C1OC(CO)CN1c1ccc(OCc2cccc(C(F)(F)F)c2)cc1 (stereo not drawn) [compound 760556],5 mg/kg,3.2 mg/kg,,14.1 mg/kg,,,
"CN(Cc1ccccc1)c1ccc(N2CC(CO)OC2=O)cc1 (stereo not drawn) [compound 760375, 5-hydroxymethyl 3-p-N-benzyl N-methylaminophenyl 2-oxazolidinone]",39 mg/kg,28 mg/kg,,160 mg/kg,,,
CC(=O)c1ccc(N2CC(CO)OC2=O)cc1 (stereo not drawn) [compound 760670],21 mg/kg,10 mg/kg,,14 mg/kg,,,
